Measured values published in paper PMC8922281, “Synthesis and In Vitro Biological Evaluation of Quinolinyl Pyrimidines Targeting Type II NADH-Dehydrogenase (NDH-2)” (ACS Infectious Diseases, 2022).
Converted amounts (≈) assume the structure as drawn. “And” between values parts separate entries of the source, which are not always exact repeats. Identical values can stand only once. Like-named read-outs stand apart in the source and are kept apart here.

Columns and labels:
[1] = tested on: S. aureus (ATCC 29213, wild-type); experiment: MIC on ESKAPE pathogens, S. aureus; type: cell-based; conditions: Staphylococcus aureus, ATCC29213
[2] = tested on: K. pneumonia (ATCC 13833, wild-type); experiment: MIC on ESKAPE pathogens, K. pneumoniae
[3] = tested on: P. aeruginosa (PAO1, wild-type); experiment: MIC on ESKAPE pathogens, P. aeruginosa wild-type; type: cell-based; conditions: Pseudomonas aeruginosa, PAO1, P. aeruginosa PAO1, wild-type; read-out: MIC Pa WT
[4] = tested on: P. aeruginosa (PAO750 efflux-defective mutant, isogenic to PAO1); experiment: microbe, parasite or virus in culture; type: cell-based; conditions: Pseudomonas aeruginosa, PAO1, read-out: MIC Pa efflux
[5] = tested on: E. coli (D22, lpxC mutant, drug-hypersensitive); experiment: microbe, parasite or virus in culture; type: cell-based; conditions: Escherichia coli, read-out: MIC Ec D22
[6] = molecular target: MsNDH-2 (Mycolicibacterium smegmatis, UniProt A0QYD6); experiment: Inhibition of MsNDH-2 (NADH oxidation with menadione, absorbance at 340 nm); type: biochemical, M. smegmatis
Chain of MsNDH-2 (A0QYD6 1-457): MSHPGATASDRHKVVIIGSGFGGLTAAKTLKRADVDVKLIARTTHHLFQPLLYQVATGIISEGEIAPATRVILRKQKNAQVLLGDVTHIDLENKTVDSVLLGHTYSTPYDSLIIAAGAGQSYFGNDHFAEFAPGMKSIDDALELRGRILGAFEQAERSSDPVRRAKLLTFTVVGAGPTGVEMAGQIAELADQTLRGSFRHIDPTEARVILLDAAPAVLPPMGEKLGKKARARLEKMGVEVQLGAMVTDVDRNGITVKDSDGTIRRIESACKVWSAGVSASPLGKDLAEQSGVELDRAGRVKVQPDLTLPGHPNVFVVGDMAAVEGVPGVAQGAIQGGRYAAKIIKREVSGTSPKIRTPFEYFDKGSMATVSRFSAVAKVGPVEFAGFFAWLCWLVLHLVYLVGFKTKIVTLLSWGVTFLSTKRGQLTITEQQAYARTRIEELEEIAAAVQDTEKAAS

[7] = tested on: E. coli (ΔtolC efflux-defective mutant, isogenic to ATCC 25922); experiment: microbe, parasite or virus in culture; type: cell-based; conditions: Escherichia coli, ATCC25922, read-out: MIC Ec ΔtolC
[8] = tested on: E. coli (ATCC 25922, wild-type); experiment: MIC on ESKAPE pathogens, E. coli wild-type; type: cell-based; conditions: Escherichia coli, ATCC25922; E. coli ATCC 25922, wild-type; read-out: MIC Ec WT
[9] = tested on: A. baumannii (ATCC 19606, wild-type); experiment: MIC on ESKAPE pathogens, A. baumannii; type: cell-based; conditions: Acinetobacter baumannii, ATCC19606; A. baumannii ATCC 19606, wild-type; read-out: MIC Ab WT
[10] = tested on: M. tuberculosis strain H37Rv (ATCC 25618); experiment: MIC on M. tuberculosis by resazurin reduction microplate assay (REMA); type: cell-based; conditions: Mycobacterium tuberculosis, M. tuberculosis H37Rv, read-out: MIC Mtb
[11] = Cytotoxicity on the MRC-5 cell line (resazurin); type: cell-based; conditions: human, MRC-5SV2 cells, MRC-5SV2, 3 days
Procedure: MRC-5SV2 cells were cultured in Earl’s MEM + 5% FCSi. Assays were performed in 96-well microtiter plates, each well containing about 10^4 cells/well. After 3 days of incubation with or without compounds, cell viability was assessed fluorimetrically after the addition of resazurin (λex 550 nm, λem 590 nm). The results were expressed as % reduction in cell growth/viability compared to untreated control wells and CC50 was determined. Testing/retesting strategy was as described above for HepG2 cells.

[12] = molecular target: MtNDH-2 (Mycobacterium tuberculosis, UniProt P95160); experiment: biochemical; parameters: species or system M. tuberculosis; conditions: MtNDH-2 IC50
Chain of MtNDH-2 (P95160 2-463, added parts left off): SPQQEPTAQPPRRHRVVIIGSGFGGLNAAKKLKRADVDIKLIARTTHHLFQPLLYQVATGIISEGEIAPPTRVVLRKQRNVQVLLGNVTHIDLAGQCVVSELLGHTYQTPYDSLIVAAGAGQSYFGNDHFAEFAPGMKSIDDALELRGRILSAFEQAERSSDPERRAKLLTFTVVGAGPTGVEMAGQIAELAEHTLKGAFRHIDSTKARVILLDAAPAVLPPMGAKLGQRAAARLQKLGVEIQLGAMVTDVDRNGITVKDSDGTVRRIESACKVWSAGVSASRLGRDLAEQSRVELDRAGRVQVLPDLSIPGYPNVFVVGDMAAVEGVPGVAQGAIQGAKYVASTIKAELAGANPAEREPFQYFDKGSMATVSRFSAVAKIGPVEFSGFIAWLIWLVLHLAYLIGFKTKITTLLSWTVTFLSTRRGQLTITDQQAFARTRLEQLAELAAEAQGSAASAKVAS

[13] = tested on: E. coli MG1655 ΔtolC resistant mutants; experiment: microbe, parasite or virus in culture; type: cell-based; conditions: for MIC: Escherichia coli
[14] = 95% confidence interval in parentheses, 50 nM enzyme, 50 μM menadione, >100: no significant inhibition at 100 μM
[15] = same IC50 given in μg/mL to assist comparisons with MICs

SMILES	MIC [1] [µg/mL]	MIC Kp WT [2] [µg/mL]	MIC [3] [µg/mL]	MIC [4] [µg/mL]	MIC [5] [µg/mL]	IC50 [6, 14] [µM]	IC50 [6, 15] [µM]	MIC [7] [µg/mL]	MIC [8] [µg/mL]	MIC [9] [µg/mL]	MIC [10] [µg/mL]	IC50 at 3 days ([11]; resazurin) [µM]	IC50 at 3 days ([11]; value in parentheses) [µg/mL]	IC50 [12]	other results
NCC1CCN(c2cc(Nc3ccc4nc(-c5ccc(F)cc5)cc(N)c4c3)nc(N)n2)CC1 [Compound 8h, N^6-(2-Amino-6-(4-(aminomethyl)piperidin-1-yl)pyrimidin-4-yl)-2-(4-fluorophenyl)quinoline-4,6-diamine]	32 (≈ 69.8 µM)	>128	4 (≈ 8.72 µM)	8 (≈ 17.4 µM)	8 (≈ 17.4 µM)	6.9	6.98	16 (≈ 34.9 µM)	64 (≈ 140 µM)	> 128	> 46	8	3.7		
Nc1nc(Nc2ccc3nc(-c4ccc(F)cc4)cc(N)c3c2)cc(N2CCOCC2)n1 [Compound 8b, N^6-(2-Amino-6-morpholinopyrimidin-4-yl)-2-(4-fluorophenyl) quinoline-4,6-diamine]	32 (≈ 74.2 µM)	64 (≈ 148 µM)	≥ 64	32 (≈ 74.2 µM)	16 (≈ 37.1 µM)	> 100	> 99.7	16 (≈ 37.1 µM)	64 (≈ 148 µM)	16 (≈ 37.1 µM)					
Fc1ccc(-c2ccc3cc(Nc4cc(N5CCNCC5)ncn4)ccc3n2)cc1 [Compound 23, 2-(4-Fluorophenyl)-N-(6-(piperazin-1-yl)pyrimidin-4-yl)quinolin-6-amine]	8 (≈ 20 µM)	64 (≈ 160 µM)	> 64	4 (≈ 9.99 µM)	16 (≈ 40 µM)	24	24	8 (≈ 20 µM)	> 64	64 (≈ 160 µM)	7.1 (≈ 17.7 µM)	7.9	3.2		
CN(C)C1CCN(c2cc(Nc3ccc4nc(-c5ccc(F)cc5)cc(N)c4c3)nc(N)n2)CC1 [Compound 8f, N^6-(2-Amino-6-(4-(dimethylamino)piperidin-1-yl)pyrimidin-4-yl)-2-(4-fluorophenyl)quinoline-4,6-diamine]	> 128	>128	32 (≈ 67.7 µM)		32 (≈ 67.7 µM)	> 100	> 99.5	32 (≈ 67.7 µM)	> 128	> 128	10.9 (≈ 23.1 µM)			5.6 µM and 5.5 µM	
Nc1ccc2nc(-c3ccc(F)cc3)cc(N)c2c1 [Compound 6, 2-(4-Fluorophenyl)quinoline-4,6-diamine]	64 (≈ 253 µM)	>64	> 64	64 (≈ 253 µM)	64 (≈ 253 µM)			> 64	> 64	> 64	12.5 (≈ 49.4 µM)			1.2 µM and 1.18 µM	
Nc1nc(Nc2ccc3nc(-c4ccc(F)cc4)cc(N)c3c2)cc(N2CCNCC2)n1 [Compound 8a, N^6-(2-Amino-6-(piperazin-1-yl)pyrimidin-4-yl)-2-(4-fluorophenyl)quinoline-4,6-diamine]	32 (≈ 74.3 µM)	>64	8 (≈ 18.6 µM)	4 (≈ 9.29 µM)	4 (≈ 9.29 µM)	9.7	9.76		8 (≈ 18.6 µM)	> 64	> 43	24	10	3.1 µM and 3.02 µM	MIC ([13]; MG1655, read-out: MIC mutant, mutant CH4954 raised against 8a, basS (pmrB) Glu121Lys waaY (rfaY) Asp160fs): 8 µg/mL (≈ 18.6 µM); MIC ([13]; MG1655, read-out: MIC mutant, mutant CH4955 raised against 8a, basR (pmrA) Gly53Glu): 16 µg/mL (≈ 37.2 µM); MIC ([13]; MG1655, read-out: MIC mutant, mutant CH4956 raised against 8a, basS (pmrB) Leu10Arg): 8 µg/mL (≈ 18.6 µM); MIC ([13]; MG1655, read-out: MIC mutant, mutant CH4957 raised against 8a, asmA Asn295fs waaP (rfaP) Glu258 stop codon): 16 µg/mL (≈ 37.2 µM); MIC ([13]; MG1655, read-out: MIC mutant, mutant CH5084 raised against 8a, basS (pmrB) Ala159Pro preB Ala13fs): 16 µg/mL (≈ 37.2 µM); fold increase of MIC ([13]; mutant CH4954 vs parent E. coli MG1655 ΔtolC): 2; fold increase of MIC ([13]; mutant CH4955 vs parent E. coli MG1655 ΔtolC): 4; fold increase of MIC ([13]; mutant CH4956 vs parent E. coli MG1655 ΔtolC): 2; fold increase of MIC ([13]; mutant CH4957 vs parent E. coli MG1655 ΔtolC): 4; fold increase of MIC ([13]; mutant CH5084 vs parent E. coli MG1655 ΔtolC): 4
Nc1nc(Cl)cc(Nc2ccc3nc(-c4ccc(F)cc4)cc(N)c3c2)n1 [Compound 7, N^6-(2-Amino-6-chloropyrimidin-4-yl)-2-(4-fluorophenyl)quinoline-4,6-diamine]	4 (≈ 10.5 µM)	>128	> 128	16 (≈ 42 µM)	16 (≈ 42 µM)	3.1	3.15	64 (≈ 168 µM)	> 128	2 (≈ 5.25 µM)	4.7 (≈ 12.3 µM)	1.1	0.4		
Nc1nc(Nc2ccc3nc(-c4ccc(F)cc4)ccc3c2)cc(N2CCNCC2)n1 [Compound 21, N^4-(2-(4-Fluorophenyl)quinolin-6-yl)-6-(piperazin-1-yl)pyrimidine-2,4-diamine]	8 (≈ 19.3 µM)	64 (≈ 154 µM)	> 64	4 (≈ 9.63 µM)	16 (≈ 38.5 µM)	32	31.3	8 (≈ 19.3 µM)	16 (≈ 38.5 µM)	32 (≈ 77 µM)	22.3 (≈ 53.7 µM)	8	3.3		
Nc1nc(Nc2ccc3nc(-c4ccc(F)cc4)cc(N)c3c2)cc(N2CCCC(O)C2)n1 (stereo not drawn) [Compound 8o, 1-(2-Amino-6-((4-amino-2-(4-fluorophenyl)quinolin-6-yl)amino)pyrimidin-4-yl)piperidin-3-ol]	64 (≈ 144 µM)	>64	> 64	32 (≈ 71.8 µM)	16 (≈ 35.9 µM)			16 (≈ 35.9 µM)	32 (≈ 71.8 µM)	32 (≈ 71.8 µM)	10.2 (≈ 22.9 µM)			3.4 µM and 3.37 µM	
Nc1nc(Nc2ccc3nc(-c4ccc(F)cc4)cc(N)c3c2)cc(N2CCC(O)CC2)n1 [Compound 8p, 1-(2-Amino-6-((4-amino-2-(4-fluorophenyl)quinolin-6-yl)amino)pyrimidin-4-yl)piperidin-4-ol]	64 (≈ 144 µM)	>64	> 64	> 64	32 (≈ 71.8 µM)			32 (≈ 71.8 µM)	64 (≈ 144 µM)	64 (≈ 144 µM)	16.5 (≈ 37 µM)			5.1 µM and 5.16 µM	
